The source of these data is patent US10822349B2, “Macrocyclic purines for the treatment of viral infections” (JANSSEN SCIENCES IRELAND UNLIMITED COMPANY, priority 2012, dated 2020).

Molecules are shown by their SMILES. Read-outs that look alike come from different tables or passages of the source.

The conditions of data set [1]: rcm bond.
The subject of data set [2] is interferon production in human PBMC. Nature of the data set: Interferon production in human PBMC, read out on HEK-ISRE-luc reporter cells. The data set is classed as cell-based. As to conditions: lowest effective concentration, PBMC supernatant after overnight incubation transferred to HEK-ISRE-luc cells; for minimal effective concentration: Homo sapiens, PBMC, 24 h, read-out: PBMC HEK-ISRE-luc (LEC; μM). As to the method:
Activation of human TLR7 results in robust production of interferon by plasmacytoid dendritic cells present in human blood. The potential of compounds to induce interferon was evaluated by determination of interferon in the conditioned media from peripheral blood mononuclear cells (PBMC). The presence of interferon in the samples was determined, using an interferon reporter cell line stably expressing an interferon-stimulated responsive elements (ISRE)-luc reporter construct. The ISRE element with sequence GAAACTGAAACT (SEQ ID: 1) is highly responsive to the STAT1-STAT2-IRF9 transcription factor, which becomes activated upon binding of IFN-I to the IFN receptor. Briefly, PBMCs were prepared from buffy coats of at least two donors using a standard Ficoll centrifugation protocol. Isolated PBMCs were resuspended in RPMI medium supplemented with 10% human AB serum and 2×10^5 cells/well were dispensed into 384-well plates containing compounds (70 μL total volume). After overnight incubation of the PBMCs with the compounds, 10 μL of supernatant was transferred to 384-well plates containing 5×10^3 HEK-ISRE-luc cells/well in 30 μL (plated the day before). Following 24 hours of incubation, activation of the ISRE elements was measured by assaying luciferase activity using 40 μL/well Steady Lite Plus substrate (Perkin Elmer) and measured with ViewLux ultraHTS microplate imager (Perkin Elmer). The stimulating activity of each compound on the HEK-ISRE-luc cells was reported as LEC. The LEC in turn indicates the degree of ISRE activation on transfer of a defined amount of PBMC culture medium. Recombinant interferon alfa-2a (Roferon-A) was used as a standard control compound.

Data set [3] addresses T1, human TLR7 (Homo sapiens, UniProt Q9NYK1).
T1 construct: expressed in transfected cells; host or cells: HEK293
T1 sequence (Q9NYK1 27-1049): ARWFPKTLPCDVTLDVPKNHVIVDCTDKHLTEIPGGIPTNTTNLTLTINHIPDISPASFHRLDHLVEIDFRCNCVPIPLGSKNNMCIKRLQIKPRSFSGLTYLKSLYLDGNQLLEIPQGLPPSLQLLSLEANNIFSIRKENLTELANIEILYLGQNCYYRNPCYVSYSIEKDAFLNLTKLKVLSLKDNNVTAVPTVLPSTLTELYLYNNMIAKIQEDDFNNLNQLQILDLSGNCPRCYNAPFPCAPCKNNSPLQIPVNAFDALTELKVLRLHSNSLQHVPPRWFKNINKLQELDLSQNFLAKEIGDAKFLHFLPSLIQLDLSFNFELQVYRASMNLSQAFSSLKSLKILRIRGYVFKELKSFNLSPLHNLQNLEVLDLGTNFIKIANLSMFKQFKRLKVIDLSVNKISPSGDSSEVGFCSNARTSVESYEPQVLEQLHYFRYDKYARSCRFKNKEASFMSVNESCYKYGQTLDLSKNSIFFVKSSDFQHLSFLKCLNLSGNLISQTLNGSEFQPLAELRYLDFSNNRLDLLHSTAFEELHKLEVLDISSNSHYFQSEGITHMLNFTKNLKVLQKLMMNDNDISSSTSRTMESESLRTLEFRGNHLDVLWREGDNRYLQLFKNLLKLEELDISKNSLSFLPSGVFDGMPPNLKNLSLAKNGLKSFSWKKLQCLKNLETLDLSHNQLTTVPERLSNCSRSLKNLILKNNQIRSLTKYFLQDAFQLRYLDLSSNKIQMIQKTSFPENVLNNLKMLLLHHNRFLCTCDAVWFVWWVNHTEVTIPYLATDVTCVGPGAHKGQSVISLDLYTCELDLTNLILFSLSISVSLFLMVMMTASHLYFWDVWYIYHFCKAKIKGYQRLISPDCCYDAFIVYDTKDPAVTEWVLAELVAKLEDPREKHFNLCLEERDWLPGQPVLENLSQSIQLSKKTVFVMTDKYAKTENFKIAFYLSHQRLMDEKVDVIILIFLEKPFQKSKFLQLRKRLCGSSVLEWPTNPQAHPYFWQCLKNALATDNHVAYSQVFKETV
Nature of the data set: TLR7 cellular reporter assay (HEK293 TLR7-NFκB-luc). The data set is classed as cell-based. To be noted: lowest effective concentration; HEK293 transiently transfected with TLR7 and NFκB-luc; 6 hours incubation. As to the method: The ability of compounds to activate human TLR7 and TLR8 was assessed in a cellular reporter assay using HEK293 cells transiently transfected with a TLR7 or TLR8 expression vector and NFκB-luc reporter construct. Briefly, HEK293 cells were grown in culture medium (DMEM supplemented with 10% FCS and 2 mM Glutamine). For transfection of cells in 10 cm dishes, cells were detached with Trypsin-EDTA, transfected with a mix of CMV-TLR7 or TLR8 plasmid (750 ng), NFκB-luc plasmid (375 ng) and a transfection reagent and incubated 48 hours at 37° C. in a humidified 5% CO2 atmosphere. Transfected cells were then detached with Trypsin-EDTA, washed in PBS and resuspended in medium to a density of 1.67×10^5 cells/mL. Thirty microliters of cells were then dispensed into each well in 384-well plates, where 10 μL of compound in 4% DMSO was already present. Following 6 hours incubation at 37° C., 5% CO2, the luciferase activity was determined by adding 15 μl of Steady Lite Plus substrate (Perkin Elmer) to each well and readout performed on a ViewLux ultraHTS microplate imager (Perkin Elmer). Dose response curves were generated from measurements performed in quadruplicates. Lowest effective concentrations (LEC) values, defined as the concentration that induces an effect which is at least two fold above the standard deviation of the assay, were determined for each compound.
In general terms: In a reporter assay the amount or activity of a reporter protein is the signal.

`CCOC(=O)N1Cc2ncccc2OCC=CCCOc2nc(N)c([N+](=O)[O-])c1n2` yielded a ring closure, yield of all isomers in data set [1] (from C=CCCOc1nc(N)c([N+](=O)[O-])c(N(Cc2ncccc2OCC=C)C(=O)OCC)n1, Hoveyda-Grubbs 2nd generation (with chlorodicyclohexylborane), 1,2-dichloroethane, 3.74 mM, 80.0 °C, 1.0 h) of 70%.

`CCOC(=O)N1Cc2cccc(c2)CC=CCCC(CO[Si](C)(C)C(C)(C)C)Nc2nc(N)c([N+](=O)[O-])c1n2` (centres unmarked): the ring closure, yield of all isomers in data set [1] (from C=CCCC(CO[Si](C)(C)C(C)(C)C)Nc1nc(N)c([N+](=O)[O-])c(N(Cc2cccc(CC=C)c2)C(=O)OCC)n1, Grubbs catalyst 2nd generation, CH2Cl2, 7.83 mM, 25.0 °C, 24.0 h) was 70%.

Take `CCOC(=O)N1Cc2ncccc2OCCC=CCOc2nc(N=P(c3ccccc3)(c3ccccc3)c3ccccc3)c([N+](=O)[O-])c1n2`: the ring closure, yield of all isomers in data set [1] (from C=CCCOc1cccnc1CN(C(=O)OCC)c1nc(OCC=C)nc(N=P(c2ccccc2)(c2ccccc2)c2ccccc2)c1[N+](=O)[O-], Hoveyda-Grubbs 2nd generation (with chlorodicyclohexylborane), 1,2-dichloroethane, 2.98 mM, 120.0 °C, 31.0 h) came out at 54%.

Consider `CCOC(=O)N1Cc2cc(OC)cc(c2)OCC=CCOc2nc(N)c([N+](=O)[O-])c1n2`, for which the ring closure, yield of all isomers in data set [1] (from C=CCOc1cc(CN(C(=O)OCC)c2nc(OCC=C)nc(N)c2[N+](=O)[O-])cc(OC)c1, Grubbs-Hoveyda catalyst 2nd generation (with chlorodicyclohexylborane), 1,2-dichloroethane, 3.63 mM, 120.0 °C, 18.0 h) is 27%.

The compound `CCOC(=O)N1CCc2cccc(c2)OCC=CCCOc2nc(N)c([N+](=O)[O-])c1n2` had a ring closure, yield of all isomers in data set [1] (from C=CCCOc1nc(N)c([N+](=O)[O-])c(N(CCc2cccc(OCC=C)c2)C(=O)OCC)n1, Grubbs catalyst 2nd generation, CH2Cl2, 5.2 mM, 25.0 °C, 7.0 h) of 52%.

With `CCOC(=O)N1Cc2cccc(c2)OCC=CCOc2nc(N)c([N+](=O)[O-])c1n2`, the ring closure, yield of all isomers in data set [1] (from C=CCOc1cccc(CN(C(=O)OCC)c2nc(OCC=C)nc(N)c2[N+](=O)[O-])c1, Hoveyda-Grubbs 2nd generation (with chlorodicyclohexylborane), 1,2-dichloroethane, 4.22 mM, 120.0 °C, 4.0 h) came to 36%.

As to `Nc1nc2nc3c1nc(O)n3Cc1ncccc1/C=C\CCCCO2` [Compound 42], the minimal effective concentration in data set [2] was 0.5 µM. Besides, the “HEK293 TLR7-NFκB-luc (LEC; μM)” value in data set [3] worked out at 2.28 µM.

Consider `COc1ccc2cc1Cn1c(O)nc3c(N)nc(nc31)OC/C=C/CO2` [Compound 63], for which the minimal effective concentration in data set [2] amounted to 0.031 µM. In data set [3], the “HEK293 TLR7-NFκB-luc (LEC; μM)” value is 0.12 µM.

For the compound `CN1CCOC(=O)Cc2cccc(c2)Cn2c(O)nc3c(N)nc1nc32` [Compound 85], the minimal effective concentration in data set [2] turned out to be 12.5 µM. Also, the “HEK293 TLR7-NFκB-luc (LEC; μM)” value in data set [3] amounted to 0.33 µM.

For `Nc1nc2nc3c1nc(O)n3Cc1cccc(c1)OCCCCCO2` [Compound 38], the minimal effective concentration in data set [2] is 0.027 µM. Besides, the “HEK293 TLR7-NFκB-luc (LEC; μM)” value in data set [3] came out at 0.53 µM.

In the case of `Nc1nc2nc3c1nc(O)n3Cc1cccc(c1)OC/C=C\CO2` [Compound 22], the minimal effective concentration in data set [2] worked out at 0.054 µM. Also, in data set [3], the “HEK293 TLR7-NFκB-luc (LEC; μM)” value was 0.12 µM.

Regarding `Nc1nc2nc3c1nc(O)n3Cc1cccc(n1)COCCCCO2` [Compound 24], in data set [2], the minimal effective concentration stood at 0.15 µM. The “HEK293 TLR7-NFκB-luc (LEC; μM)” value in data set [3] was 1.05 µM.

Regarding `COc1cc2cc(c1)OC/C=C\COc1nc(N)c3nc(O)n(c3n1)C2` [Compound 65], in data set [2], the minimal effective concentration is 0.03 µM. Also, in data set [3], the “HEK293 TLR7-NFκB-luc (LEC; μM)” value stood at 0.038 µM.

On to `COc1c2cccc1OC/C=C\COc1nc(N)c3nc(O)n(c3n1)C2` [Compound 62], for which the minimal effective concentration in data set [2] was found to be 2.03 µM. Besides, in data set [3], the “HEK293 TLR7-NFκB-luc (LEC; μM)” value turned out to be 7.26 µM.

Regarding `Nc1nc2nc3c1nc(O)n3Cc1cccc(n1)OCC(=O)NCCCO2` [Compound 9], in data set [2], the minimal effective concentration was 0.098 µM. Also, the “HEK293 TLR7-NFκB-luc (LEC; μM)” value in data set [3] amounted to 0.30 µM.

Turning to `COc1ccc2cc1Cn1c(O)nc3c(N)nc(nc31)OC/C=C\CO2` [Compound 74], the minimal effective concentration in data set [2] came out at 0.044 µM. Besides, the “HEK293 TLR7-NFκB-luc (LEC; μM)” value in data set [3] is 0.1 µM.

As to `Nc1nc2nc3c1nc(O)n3Cc1ncccc1OCCCCCO2` [Compound 50], in data set [2], the minimal effective concentration amounted to 0.24 µM. For the same compound, in data set [3], the “HEK293 TLR7-NFκB-luc (LEC; μM)” value worked out at 1.19 µM.

As to `Nc1nc2nc3c1nc(O)n3Cc1cccc(c1)OC/C=C/CCC(CO)N2` (centres unmarked) [Compound 18], the minimal effective concentration in data set [2] stood at 0.056 µM. Further, the “HEK293 TLR7-NFκB-luc (LEC; μM)” value in data set [3] turned out to be 0.82 µM.

With `COc1ccc2cc1Cn1c(O)nc3c(N)nc(nc31)OCCCCO2` [Compound 70], the minimal effective concentration in data set [2] came to 0.04 µM. Further, the “HEK293 TLR7-NFκB-luc (LEC; μM)” value in data set [3] is 0.15 µM.

`Nc1nc2nc3c1nc(O)n3Cc1cccc(c1)CC(=O)NCCCO2` [Compound 5]: the minimal effective concentration in data set [2] stood at 0.044 µM. Also, the “HEK293 TLR7-NFκB-luc (LEC; μM)” value in data set [3] was determined as 0.24 µM.

`Nc1nc2nc3c1nc(O)n3Cc1cccc(c1)C/C=C\CCO2` [Compound 17]: the “PBMC HEK-ISRE-luc (LEC; μM)” value in data set [2] (24 hours) is 0.013 µM. Also, the “HEK293 TLR7-NFκB-luc (LEC; μM)” value in data set [3] worked out at 0.067 µM.

On to `COc1ccc2cc1CCCCCOc1nc(N)c3nc(O)n(c3n1)C2` [Compound 66], for which the minimal effective concentration in data set [2] stood at 0.018 µM. In data set [3], the “HEK293 TLR7-NFκB-luc (LEC; μM)” value came to 0.032 µM.
